Values after ≈ are worked out from the molar mass of the structure shown.
Columns and labels:
Drosophila melanogaster = test: DipteraTOX insecticidal bioassay; set-up: key: A value of A in DipG, Dip P or Dip H represents very active; a value of P represents active; conditions: 250 μg per mL in agar
Protocol: DipteraTOX. DipteraTOX is referred to herein as DipG, DipP and DipH. DipG represents no grazing of larva. DipP represents no pupae formation and Dip H represents no hatching of flies. A value of A in DipG, Dip P or Dip H represents very active and a value of P represents active. In DipteraTox the fly eggs are applied to the surface of an agar matrix containing 250 μg per mL of the test chemical and allowed to hatch, develop and pupate for a period up of two weeks. The assay was monitored at two discrete times to determine the extent of grazing of the agar matrix at Week 1 and the presence of adult flies at Week 2. […] Drosophila melanogaster was utilised for this assay.

prostate DU145 = test: Additional in vitro activity: antitumor activity, DU145; assay type: cell-based, human; conditions: concentration with activity
MM96L melanoma = test: Cell growth inhibition (Table 22), MM96L; assay type: cell-based; conditions: Homo sapiens, read-out: IC50 (drug dose which inhibits cell growth by 50%) MM96L
Protocol: (§1) The isolated compounds were tested against a number of human and non-human cancer cell lines. The human tumor cell lines were: MCF-7, MDA-MB-231 and T47D, breast cancer; DU145 and PC3, prostate cancer; CI80-13S, ovarian cancer; MM96L, D04, SkMel5, MM418c5 melanoma; HT29, colon cancer; K562 and HL60, leukemia. Mouse cell lines were the B16 mouse melanoma and LK2 UV-induced squamous cell carcinoma (SCC). Neonatal foreskin fibroblasts (NFF) were used as normal control cells. Cells were cultured at 37° C. in 5% carbon dioxide/air, in RPMI 1640 medium containing 10% fetal calf serum.

[1] = test system: normal human fibroblasts (NFF); test: Additional in vitro activity: cytotoxic activity, NFF; assay type: cell-based; conditions: concentration with activity
[2] = test system: EBV-infected peripheral blood mononuclear cells (PBMCs); test: EBV transformation of donor PBMCs (anti-inflammatory screening); assay type: cell-based, human; conditions: 2 μg/mL, 28 days, visual and 3H-T cpm
Protocol: Three main assays were performed; transformation, regression and mixed lymphocyte reactions (MLRs). Reference is made to Moss et al., (D J, Rickinson A B, Pope J H: Long-term T-cell-mediated immunity to Epstein-Barr virus in man. III. Activation of cytotoxic T cells in virus-infected leukocyte cultures. Int J Cancer 1979, 23:618-625). Complete regression of virus-induced transformation in cultures of seropositive donor leukocytes
Both regression and MLR quantitative experimental results were obtained visually and by the addition of [methyl-^3H]thymidine (3H-T). 3H-T is a nucleoside analogue and is incorporated into the DNA of proliferating cells. If cells are proliferating, the counts/minute (cpm) is high; if cells are dead, the cpm is low.
EBV seronegative and seropositive donors' peripheral blood mononuclear cells (PBMCs) were infected with EBV. […]
The cells were then incubated for 28 days when results were determined visually and by the addition of 3H-T to obtain quantitative data.
The individual transformation summaries were determined by visual data and 3H-T cpm data from EBV seronegative_donors' peripheral blood mononuclear cells (PBMC). […] The 3H-T cpm cut-off values were determined for each individual assay by this control value, plus and minus a five (5)-fold difference. […]

Giardia spp. = test: TriTOX (Gi) anti-protozoan bioassay; assay type: cell-based; conditions: for Gi LD99: weight of chemical in last well with activity, real value may be lower
From the text: TriTOX (alternatively referred to herein as Gi) is a microtitre plate based chromogenic bioassay for the screening of anti-protozoan activity of pathogenic, anaerobic/microaerophilic protozoans for example Giardia spp. and Trichomonas spp. The bioassays are run under anaerobic conditions and features species specific chromogens. […] Aliquots of each concentration(s) are applied to the wells of 96-well microtitre plates and diluted with media. […] The lowest concentration at which the compound is active is noted as the minimum inhibitory concentration (MIC). Additionally, microscopic inspection is carried out to identify any patterns of morphological change that may be consistent with a type of toxicity and therefore mode of action. Giardia spp. was utilized for this assay.

ovarian C180-13S = test: Additional in vitro activity: antitumor activity, C180-13S; assay type: cell-based, human; conditions: concentration with activity
[3] = test system: NS1 murine myeloma cell line; test: CyTOX (Cy) cytotoxicity bioassay; assay type: cell-based; conditions: for Cy LD99: weight of chemical in last well with activity, real value may be lower
From the text: CyTOX (alternatively referred to herein as Cy) is a microtitre plate bioassay use to identify potential antitumor actives. CyTOX is a chromogenic bioassay with broad application to a wide range of tumor and non-tumor cell lines. […] CyTOX features a liquid media into which the test compound has been incorporated together with a novel chromogen. As the cells grow and divide the chromogen is metabolised from purple in a single step process to a colourless metabolite. CyTOX is routinely undertaken using NS1 murine myeloma cell line as a guide to mammalian cell toxicity. Briefly, in CyTOX the cells were applied to the media containing the test chemical and allowed to grow for 72 hours. The assay was monitored at 24, 48 and 72 hours and the active wells identified.

MCF-7 breast cancer = test: Cell growth inhibition (Table 22), MCF7; assay type: cell-based; conditions: Homo sapiens, read-out: IC50 (drug dose which inhibits cell growth by 50%) MCF7
Protocol: as §1

melanoma MM96L = test: Additional in vitro activity: antitumor activity, MM96L; assay type: cell-based, human; conditions: concentration with activity
leukemia K562 = test: Additional in vitro activity: antitumor activity, K562; assay type: cell-based, human; conditions: concentration with activity
Haemonchus contortus = test: NemaTOX (Ne) anthelmintic larval development bioassay; conditions: for Ne LD99: weight of chemical in last well with activity, real value may be lower
Protocol: NemaTOX (alternatively referred to herein as Ne) is an anthelmintic bioassay, applicable to all parasitic nematodes with free-living life cycle stages, and can be used as a screen to detect activity and define the species spectrum of compounds against parasitic nematodes and examine the impact of pre-existing resistance to other anthelmintic classes on potency. Haemonchus contortus was utilised for this assay.
The effect on larval development is determined in this assay by the method described by Gill et al. (1995) Int. J. Parasitol. 25: 463-470. Briefly, in this assay nematode eggs were applied to the surface of an agar matrix containing the test sample and allowed to develop through to the L3, infective stage (6 days). At this time the stage of larval development reached and any unusual features (deformity, paralysis, toxicity) were noted by microscopic examination.

DU145 prostate cancer = test: Cell growth inhibition (Table 22), DU145; assay type: cell-based; conditions: Homo sapiens, DU-145; read-out: IC50 (drug dose which inhibits cell growth by 50%) DU145
Protocol: as §1

Compound | DipP (no pupae formation) (Drosophila melanogaster) | antitumor activity against prostate DU145 at (prostate DU145) [µg/mL] | IC50 (MM96L melanoma) [µg/mL] | cytotoxic activity against normal human fibroblasts (NFF) at [1] [µg/mL] | inhibition of transformation [2] | antitumor activity against ovarian C180-13S at (ovarian C180-13S) [µg/mL] | IC50 (MCF-7 breast cancer) [µg/mL] | antitumor activity against melanoma MM96L at (melanoma MM96L) [µg/mL] | antitumor activity against leukemia K562 at (leukemia K562) [µg/mL] | IC50 (DU145 prostate cancer) [µg/mL] | also measured
CCCCCCCCCCCCCC(O)CC1CC(O)CC2(CC3OC(=O)C=CC3O2)O1 (stereo not shown) [EBI-23] | P | 3 | 0.15 (≈ 0.331 µM) | 30 | strong inhibition | 1 | 0.5 (≈ 1.1 µM) | 1 | 3 | 0.7 (≈ 1.55 µM) | Gi Titre (Giardia spp.): 4; Gi LD99 (Giardia spp.; listed as EB77.LA4.92-100): 16 µg/mL; Gi LD99 (Giardia spp.; listed as EB116.LA3.31-27/32): 50 µg/mL; Gi LD99 (Giardia spp.; listed as EB116.LA3.60-40/42): 50 µg/mL; Cy Titre [3]: 256; Cy LD99 ([3]; listed as EB77.LA4.92-100): 0.24 µg/mL; Cy LD99 ([3]; listed as EB116.LA3.31-27/32): 0.78 µg/mL; Cy LD99 ([3]; listed as EB116.LA3.60-40/42): 0.78 µg/mL; Ne Titre (Haemonchus contortus): 1; Ne LD99 (Haemonchus contortus; listed as EB77.LA4.92-100): 63 µg/mL; Ne LD99 (Haemonchus contortus; listed as EB116.LA3.31-27/32): 100 µg/mL
CC/C=C/CCCCCCCCCCCC(O)CC1CC(O)CC2(CC3OC(=O)C=CC3O2)O1 (stereo not shown) [EBI-24] | P/P | 10 | 1.3 (≈ 2.72 µM) | 10 | strong inhibition | 3 | 0.2 (≈ 0.418 µM) | 3 | 10 | 0.7 (≈ 1.46 µM) | DipH (no hatching of flies) (Drosophila melanogaster): P/P; Gi LD99 (Giardia spp.; listed as EB116.LA3.31-36/40): 100 µg/mL; Gi LD99 (Giardia spp.; listed as EB116.LA3.60-47/49): 50 µg/mL; Cy LD99 [3]: 0.78 µg/mL; Ne LD99 (Haemonchus contortus; listed as EB116.LA3.31-36/40): 100 µg/mL; Ne LD99 (Haemonchus contortus; listed as EB116.LA3.60-47/49): 50 µg/mL
